From patent publication US20140309275A1, “Sphingosine Analogs, Compositions, and Methods Related Thereto” (Emory University, priority 2011, published 2014)
Read-outs that look alike come from different tables or passages of the source.

Assays:
Assay type in all cases: cell-based
[1] = test system: PC-3 prostate cancer cells; assay: WST-1 cytotoxicity assay, PC-3; conditions: 24 h treatment
Procedure: (§1) Prostate cancer cells were treated with enigmol or analogue for 24 h, and cytotoxicity was assessed by WST-1 assay. cLogPs were calculated with QuikProp on Maestro.

[2] = test system: LNCaP prostate cancer cells; assay: WST-1 cytotoxicity assay, LNCaP; conditions: Homo sapiens, 24 h treatment
Procedure: as §1

[3] = test system: P. falciparum chloroquine resistant (CQ-R) W2 strain; assay: [3H]-labeled hypoxanthine uptake assay, P. falciparum W2; conditions: Plasmodium falciparum
From the text: (§2) The [^3H]-labeled hypoxanthine uptake method was utilized to assay the effectiveness of our sphingoid base analogs in vitro for their ability to inhibit the growth and replication of malaria parasites in RBCs. […] The simian malaria parasite P. knowlesi has also been recognized as a human pathogen of public health concern in South East Asia, and it can be cultured effectively in vitro. This species was therefore included to probe the potential of multi-species efficacy within this compound class.
(§3) Cryopreserved iRBCs were provided by Dr. John W. Barnwell from the Centers for Disease Control and Prevention and maintained in in vitro culture as described in Trager & Jensen, Science 1976, 193 (4254), 673-5.
(§4) Compounds in Table 1 were dissolved in 70% 200-proof pharmaceutical grade ethanol, and a working solution of 0.2 mg/mL was prepared using hypoxanthine- and gentamicin-free incomplete RPMI 1640 (Gibco). Compounds in Table 2 were dissolved in 200 proof pharmaceutical grade ethanol at a concentration of 50 μM and then conjugated to BSA (Sigma) as described.^5 A working solution of 0.2 mg/mL was prepared using hypoxanthine- and gentamicin-free incomplete RPMI 1640 (Gibco). Two compounds were tested per plate in triplicate starting at 0.2 mg/mL and diluted two-fold down to 0.019 μg/mL using hypoxanthine- and gentamicin-free RPMI.
(§5) Parasite inoculum was prepared by mixing parasitized blood, uninfected 0+RBCs (for P. falciparum strains) or rhesus RBCs (for P. knowlesi) and culture medium (deficient in hypoxanthine and gentamicin) to a final concentration of 1% parasitemia and 1% haematocrit. A negative control was prepared by diluting uninfected erythrocytes to 1% haematocrit in culture medium. [^3H]-labeled hypoxanthine was added at 24 h (for P. falciparum strains) or 12 h (P. knowlesi) and the culture was collected 48 h or 12 h later for P. falciparum or P. knowlesi, respectively. [^3H] uptake was measured by using a scintillation spectrophotometer (Wallac Oy 1450 MicroBeta reader).
(§6) Triplicate wells were used to calculate the IC50 for each compound using the software XLFit v5.2 using the sigmoidal model 601. Average and standard deviations were calculated using Microsoft Excel.

[4] = test system: P. falciparum chloroquine susceptible (CQ-S) D6 strain; assay: [3H]-labeled hypoxanthine uptake assay, P. falciparum D6; conditions: Plasmodium falciparum
From the text: as §2, §3, §4, §5, §6

[5] = W2, Table 2, compounds conjugated to BSA, read-out: IC50 W2
[6] = D6, Table 2, compounds conjugated to BSA, read-out: IC50 D6

SMILES | IC50 [1] [µM] | IC50 [2] [µM] | IC50 [3, 5] [µM] | IC50 [4, 6] [µM] | also measured
CCCCCCCCCCCCC[C@H](O)C[C@H](O)C(C)(C)N (racemic) [ESPD-0560, (+/−)-syn-2 amino-2-methyloctadecane-3,5-diol] | 10 | 23 | 4.67 ± 1 | 5.2 ± 3 | 
CCCCCCCCCCCCC[C@@H](O)C[C@H](O)C(C)(C)N (racemic) [ESPD-0561, (+/−)-anti-2 amino-2-methyloctadecane-3,5-diol] | 10 | 25 | 7.43 | 4.1 ± 0.7 | 
CCCCCCCCCCCCC[C@@H](O)C[C@H](O)C1(N)CC1 (racemic) [ESPD-0859, (+/−)-anti-1-(1-aminocyclopropyl)hexadecane-1,3-diol] |  |  | 7.2 ± 4 | 11.2 | 
CCCCCCCCCCCCC[C@H](O)C[C@H](O)C1(N)CC1 (racemic) [ESPD-0860, (+/−)-syn1-(1-aminocyclopropyl)hexadecane-1,3-diol] |  |  | 9.9 ± 7 | 5.5 | 
CCCCCCCCCCCCC[C@H](O)C[C@H](O)C(C)(C)NC (racemic) [ESPD-1158, (+/−)-syn-2-methyl-2-(methylamino)octadecane-3,5-diol] |  |  | 0.25 | 0.7 ± 0.5 | IC50 ([3]; W2, text b107, BSA-conjugated, strain not stated (matches W2 of Table 2), read-out: IC50): 0.25 µM
CCN(CC)CCCC(C)Nc1ccnc2cc(Cl)ccc12 (stereo not drawn) [Chloroquine, reference compound] |  |  |  |  | IC50 ([3]; W2, read-out: IC50 W2, Table 1, compounds dissolved in 70% ethanol, not BSA-conjugated): 0.18 µM; IC50 ([3]; W2, read-out: IC50 W2, Table 2, compounds conjugated to BSA): 0.093 µM; IC50 ([4]; D6, read-out: IC50 D6, Table 1, compounds dissolved in 70% ethanol, not BSA-conjugated): 0.02 µM; IC50 ([4]; D6, read-out: IC50 D6, Table 2, compounds conjugated to BSA): 0.011 µM
CCCCCCCCCCCCC[C@H](O)C[C@@H](O)[C@H](C)NC [ESPD-0559, (2S,3R,5S)-2-(methylamino)octadecane-3,5-diol] |  |  |  |  | IC50 ([3]; W2, Table 1, compounds dissolved in 70% ethanol, not BSA-conjugated, read-out: IC50 W2): 8.09 ± 0.24 µM; IC50 ([4]; D6, Table 1, compounds dissolved in 70% ethanol, not BSA-conjugated, read-out: IC50 D6): 14.6 ± 0.64 µM
CCCCCCCCCCCCCC(O)C/C(=N\O)C(C)(C)N (stereo not drawn) [ESPD-0858, (+/−,E)-2-amino-5-hydroxy-2-methyloctadecan-3-one oxime] | 24 | 24 | 10 ± 2.7 | 7.44 | 
C[C@H](N)[C@@H](O)C[C@@H](O)CCCCCCCCCCCCC(F)(F)F [ESPD-01183] | 13 | 13 |  |  | 
C[C@H](N)[C@@H](O)C[C@@H](O)CCCCCC#CCCCCCC(F)(F)F [ESPD-01184] | 92 | > 100 |  |  | 
CCCCCCC#CCCCCC[C@H](O)C[C@H](O)[C@H](C)N [ESPD-01185] | > 100 | > 100 |  |  | 
C[C@H](N)[C@@H](O)C[C@@H](O)CCCCC/C=C/CCCCCC(F)(F)F [ESPD-01186] | 27 | 14 |  |  | 
CCCCCC/C=C/CCCCC[C@H](O)C[C@H](O)[C@H](C)N [ESPD-01187] | 33 | 19 |  |  | 
CCCCCC/C=C\CCCCC[C@H](O)C[C@H](O)[C@H](C)N [ESPD-01192] | 25 | 19 |  |  | 
CCCCCCCCCCCCC(F)(F)[C@H](O)C[C@H](O)[C@H](C)N [ESPD-01406, (2S,3S,5R)-2-amino-6,6-difluorooctadecane-3,5-diol] | 9 | 10 |  |  | 
CCCCCCCCCCCCC(F)(F)[C@@H](O)C[C@H](O)[C@H](C)N [ESPD-01407, (2S,3S,5S)-2-amino-6,6-difluorooctadecane-3,5-diol] | 9 | 10 |  |  | 
CCCCCCCCCCCCC(F)(F)[C@H](O)C[C@@H](O)[C@H](C)N [ESPD-01408, (2S,3R,5R)-2-amino-6,6-difluorooctadecane-3,5-diol] | 9 | 10 |  |  | 
CCCCCCCCCCCCC(F)(F)[C@@H](O)C[C@@H](O)[C@H](C)N [ESPD-01409, (2S,3R,5S)-2-amino-6,6-difluorooctadecane-3,5-diol] | 10 | 10 |  |  | 
